One assay concerns the target Isocitrate lyase (Candida albicans, UniProt Q9P8Q7). Put plainly: Inhibition of recombinant Candida albicans ATCC 10231 ICL using phenylhydrazine and isocitrate as substrate assessed as formation of glyoxylate phenylhydrazone after 30 mins by spectrophotometric analysis.
The subject of assay [1] is Candida albicans. As to the kind of experiment: Antifungal activity against Candida albicans SC5314 assessed as growth inhibition after 48 hrs in presence of 2% potassium acetate. It is filed as functional. Particulars: SC5314, 48 h.
In assay [2] the test system is Candida albicans. Put plainly: Antifungal activity against Candida albicans SC5314 assessed as growth inhibition after 48 hrs in presence of 2% glucose. It is filed as functional. As to conditions: SC5314, 48 h.
Assay [3] deals with Candida albicans. Put plainly: Antifungal activity against icl-deficient Candida albicans MRC10 assessed as growth inhibition at 12.5 ug/ml after 3 days in presence of glucose. It is filed as functional, organism-based.
Assay [4] concerns Candida albicans. As to the kind of experiment: Downregulation of mRNA expression in icl-deficient Candida albicans MRC11 expressing ICL at 12.5 ug/ml after 4 hrs by RT-PCR analysis relative to control. In kind it is functional.
For assay [5], the system named is Candida albicans. Put plainly: Antifungal activity against icl-deficient Candida albicans MRC11 expressing ICL assessed as growth inhibition at 12.5 ug/ml after 3 days in presence of glucose. In kind it is functional, organism-based.
For assay [6], the system named is Candida albicans. As to the kind of experiment: Antifungal activity against wild type Candida albicans SC5314 assessed as growth inhibition at 12.5 ug/ml after 3 days in presence of glucose. It is filed as functional, organism-based.
For assay [7], the system named is Candida albicans. As to the kind of experiment: Downregulation of mRNA expression in wild type Candida albicans SC5314 at 12.5 ug/ml after 4 hrs by RT-PCR analysis relative to control. It is filed as functional.
Assay [8] relates to Candida albicans. Put plainly: Antifungal activity against wild type Candida albicans SC5314 assessed as growth inhibition at 12.5 ug/ml after 3 days in presence of sodium acetate. In kind it is functional, organism-based.
Assay [9] relates to Candida albicans. As to the kind of experiment: Antifungal activity against icl-deficient Candida albicans MRC11 expressing ICL assessed as growth inhibition at 12.5 ug/ml after 3 days in presence of sodium acetate. In kind it is functional, organism-based.
Assay [10] has as its system Candida albicans. Put plainly: Antifungal activity against icl-deficient Candida albicans MRC10 assessed as growth inhibition at 12.5 ug/ml after 3 days in presence of sodium acetate. In kind it is functional, organism-based.

As a reminder, the IC50 is the point on the concentration scale where inhibition reaches its midpoint. As usually defined, the MIC is the smallest concentration in the dilution series that meets the test's criterion for growth inhibition.

The source made the active and inactive calls.

Sequence of Isocitrate lyase (Q9P8Q7 whole entry): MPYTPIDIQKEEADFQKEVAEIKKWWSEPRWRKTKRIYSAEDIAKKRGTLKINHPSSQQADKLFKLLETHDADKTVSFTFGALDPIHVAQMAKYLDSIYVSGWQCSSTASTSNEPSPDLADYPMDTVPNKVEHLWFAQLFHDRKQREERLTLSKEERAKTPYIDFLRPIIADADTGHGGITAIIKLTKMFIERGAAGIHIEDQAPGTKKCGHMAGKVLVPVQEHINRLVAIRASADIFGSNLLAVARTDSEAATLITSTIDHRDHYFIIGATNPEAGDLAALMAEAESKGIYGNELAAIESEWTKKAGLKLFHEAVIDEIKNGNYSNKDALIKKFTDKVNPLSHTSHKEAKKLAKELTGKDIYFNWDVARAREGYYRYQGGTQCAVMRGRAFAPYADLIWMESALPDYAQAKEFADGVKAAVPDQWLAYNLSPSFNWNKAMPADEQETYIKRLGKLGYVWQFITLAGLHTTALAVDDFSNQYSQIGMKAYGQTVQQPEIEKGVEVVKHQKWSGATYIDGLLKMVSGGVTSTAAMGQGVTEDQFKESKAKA

`COc1ccc(/C=C2\OC(=O)C([C@@H](O)c3cc(Br)c(OC)c(Br)c3)=C2c2cc(Br)c(O)c(Br)c2)cc1`: the IC50 at Isocitrate lyase is 17.2 µM. Besides, the MIC in the assay with Candida albicans [1] was 50 µg/mL; in the assay on Candida albicans [2], more than 200 µg/mL.
In the case of `COC(=O)/C(C(=O)c1cc(Br)c(O)c(Br)c1)=C(\C(=O)OC)c1ccc(O)c(Br)c1`, the concentration for half-maximal inhibition (IC50) on Isocitrate lyase came to 122 µM. Moreover, the MIC in the assay on Candida albicans [1] was 100 µg/mL; in the assay on Candida albicans [2], more than 200 µg/mL.
For the molecule `COC(=O)/C(C(=O)c1cc(Br)c(O)c(Br)c1)=C(\C(=O)OC)c1cc(Br)c(O)c(Br)c1`, the IC50 on Isocitrate lyase is 75.2 µM. Besides, the MIC with Candida albicans [1] was 100 µg/mL; in the assay with Candida albicans [2], more than 200 µg/mL.
In the same order, the values of `O=C(O)CC[N+](=O)[O-]` are 13.9 µM, 200 µg/mL and more than 200 µg/mL.
Regarding `C[C@@H]1[C@H](O)[C@@H](C)/C=C/C=C/C=C/C=C/C=C/C=C/C=C/[C@H](O[C@@H]2O[C@H](C)[C@@H](O)[C@H](N)[C@@H]2O)C[C@@H]2O[C@](O)(C[C@@H](O)C[C@@H](O)[C@H](O)CC[C@@H](O)C[C@@H](O)CC(=O)O[C@H]1C)C[C@H](O)[C@H]2C(=O)O` [AMPHOTERICIN B], the MIC in the assay with Candida albicans [1] and in the assay on Candida albicans [2] was 1.56 µg/mL each time.
For `O=C1O/C(=C\c2cc(Br)c(O)c(Br)c2)C(c2ccc(O)c(Br)c2)=C1C(=O)c1cc(Br)c(O)c(Br)c1` [CADIOLIDE E], the “growth inhibition (GI)” value in the assay with Candida albicans [3], in the assay on Candida albicans [5] and with Candida albicans [6] was “inactive” in each case. In addition, the “fold change (FC)” value in the assay with Candida albicans [4] and in the assay on Candida albicans [7] was 5 each time. At Isocitrate lyase, the IC50 turned out to be 7.62 µM. The MIC is 12.5 µg/mL in the assay on Candida albicans [1] and more than 200 µg/mL with Candida albicans [2]. Moreover, the “growth inhibition (GI)” value in the assay on Candida albicans [8], with Candida albicans [9] and in the assay on Candida albicans [10] was “Active” each time.
On to `COc1c(Br)cc([C@H](O)C2=C(c3ccc(O)c(Br)c3)/C(=C/c3ccc(O)c(Br)c3)OC2=O)cc1Br` [CADIOLIDE G], for which the IC50 on Isocitrate lyase was found to be 48.8 µM. For the same molecule, the MIC was 50 µg/mL in the assay on Candida albicans [1] and more than 200 µg/mL in the assay with Candida albicans [2].
Turning to `COC(=O)C1=C(c2cc(Br)c(O)c(Br)c2)C(=O)OC1=C(c1cc(Br)c(O)c(Br)c1)c1cc(Br)c(O)c(Br)c1` [CADIOLIDE I], on Isocitrate lyase, the IC50 stood at 10.4 µM. The figures for the MIC in the assay on Candida albicans [1] and with Candida albicans [2] were 50 µg/mL and more than 200 µg/mL, respectively.

Source of the values: ChEMBL document CHEMBL2401674, “Inhibition of Candida albicans isocitrate lyase activity by cadiolides and synoilides from the ascidian Synoicum sp” (Bioorg Med Chem Lett, 2013).
